Laboratory results: patent US11220479B2, “Glucosylceramide synthase inhibitors and therapeutic methods using the same” (THE REGENTS OF THE UNIVERSITY OF MICHIGAN, priority 2019, dated 2022)
Where two headings read alike, the source gives them in different places.

What was measured:
[1] = Half-life when incubated with mouse liver microsomes (MLM); format: in vitro ADME; details: read-out: MLM T½
Experimental: ^a Inhibition of GlcCer production in whole wild-type MDCKII cells. ^bHalf-life when incubated with mouse liver microsomes. ^cAreas under the drug concentration curve after single IP dose in mice (10 mg/kg). ^dReduction in brain levels of glucosylceramide in CBE mice after 14 days of qd dosing with test drug administered IP. NC=no change.

[2] = target: T1, glucosylceramide synthase (GCS) (Canis lupus familiaris, UniProt A0A8I3MXG6); assay: GCS inhibition in MDCKII cells (inhibition of GlcCer production in whole wild-type MDCKII cells); format: cell-based; details: read-out: MDCK IC50
T1 construct: endogenous in cells; host or cells: parental (wild-type) MDCKII cells
T1 sequence (A0A8I3MXG6 1-394): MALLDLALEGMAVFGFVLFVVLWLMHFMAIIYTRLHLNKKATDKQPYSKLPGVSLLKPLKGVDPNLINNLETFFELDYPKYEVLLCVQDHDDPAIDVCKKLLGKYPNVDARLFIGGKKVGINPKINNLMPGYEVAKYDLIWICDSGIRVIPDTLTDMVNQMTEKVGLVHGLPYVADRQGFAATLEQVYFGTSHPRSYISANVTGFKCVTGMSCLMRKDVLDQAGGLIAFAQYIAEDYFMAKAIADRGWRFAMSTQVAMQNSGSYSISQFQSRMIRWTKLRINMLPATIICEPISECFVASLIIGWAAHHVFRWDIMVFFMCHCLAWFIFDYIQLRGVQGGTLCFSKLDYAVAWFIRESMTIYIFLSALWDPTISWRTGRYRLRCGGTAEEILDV
Experimental: GCS Inhibition in MDCKII Cells
Parental (WT-)MDCKII cells were routinely maintained in medium consisting of Opti-MEM/F12 (1:1), 5% FBS, 100 U/mL of penicillin, 100 μg/mL streptomycin and 200 mM L-glutamine. MDCKII cells were newly thawed from frozen ampules every two months.
The inhibitor-ethanol solutions then were diluted 50× into 2 mM delipidated bovine serum albumin-phosphate buffered saline solution to make water-soluble glycosphingolipid inhibitor-bovine serum albumin complexes. The inhibitor-bovine serum album complexes were sterile-filtered and stored at −20° C. Prior to use, portions of the inhibitor-bovine serum albumin complexes were further diluted with Opti-F12 to make treatment solutions. Equal amounts of bovine serum albumin and ethanol were added into the control cultures. Cells (5×10^5) were seeded into 10-cm culture dishes containing 10 ml of Opti-F12 with 5% FBS. After 24 hours, the medium was replaced with fresh serum-free Opti-F12 medium, and cells were exposed to candidate GCS inhibitors at concentrations of 0, 1, 3, 10, 30, 100 and 300 nM for 24 hours.
Briefly, cells were washed with ice-cold phosphate buffered saline, fixed by methanol, and collected with rubber scraper. Chloroform was then added to yield a theoretical ratio of chloroform:methanol:water at 1:2:0.8 (v/v/v) to form a mono-phase. Cell debris and proteins were removed by centrifugation at 2200×g for 30 min. The supernatants were portioned by adding chloroform and 0.9% NaCl. […] A portion of purified glycosphingolipids normalized to 100 nmol of total phospholipids was analyzed by high performance thin layer chromatography. The thin layer chromatography separations were processed twice. The plate pretreated with 1% sodium borate was first developed in a solvent system consisting of chloroform/methanol (98/2, v/v). After air drying, the plate was then developed in a solvent system containing chloroform/methanol/water (70/30/4, v/v/v). The levels of glucosylceramide were detected by charring with 8% cupric sulfate in 8% phosphoric acid, and quantified by densitometric scanning using ImageJ, NIH Image.

[3] = IP PK: areas under the drug concentration curve after single IP dose in mice; format: in vivo; details: mice, single IP dose 10 mg/kg; for AUC: mouse, plasma
[4] = mouse, liver microsomes, Table 2, Cl vs H comparison
[5] = inhibition of GlcCer production in whole wild-type MDCKII cells, 24 hours
[6] = half-life when incubated with mouse liver microsomes

Row | Compound | half-life [1, 4] [min] | IC50 [2, 5] [nM] | AUC [3] [ng·h/mL] | half-life [1, 6] [min] | IP PK Brain AUC [3] | IC50 ([2]; Table 2, Cl vs H comparison) [nM]
1 | O=C(CC1Cc2ccccc2C1)N[C@H](CN1CCCC1)[C@H](O)c1ccc(OC(F)(F)F)cc1 [Comp. Ex. 3, reference compound] | 251 | – | – | – | – | –
2 | CC1(OC(=O)N[C@H](CN2CCCC2)[C@H](O)c2cccc(Cl)c2)Cc2ccccc2C1 [Example 14, 2-methyl-2,3-dihydro-1H-inden-2-yl ((1R,2R)-1-(3-chlorophenyl)-1-hydroxy-3-(pyrrolidin-1-yl)propan-2-yl)carbamate] | – | 9.2 | 324 | – | – | –
3 | O=C(CC1Cc2ccccc2C1)N[C@H](CN1CCCC1)[C@H](O)c1ccc(OC(F)(F)F)c(Cl)c1 [Example 3, N-((1R,2R)-1-(3-chloro-4-(trifluoromethoxy)phenyl)-1-hydroxy-3-(pyrrolidin-1-yl)propan-2-yl)-2-(2,3-dihydro-1H-inden-2-yl)acetamide] | – | 4.1 | – | 316 | – | –
4 | O=C(CC1Cc2ccccc2C1)N[C@H](CN1CC[C@@H](F)C1)[C@H](O)c1ccc(OC2CC2)c(Cl)c1 [Example 11, N-((1R,2R)-1-(3-chloro-4-cyclopropoxyphenyl)-3-((R)-3-fluoropyrrolidin-1-yl)-1-hydroxypropan-2-yl)-2-(2,3-dihydro-1H-inden-2-yl)acetamide] | – | 0.63 | 397 | 5.5 | 178 ng·h/mL | –
5 | O=C(CC1Cc2ccccc2C1)N[C@H](CN1CCCC1)[C@H](O)c1ccccc1 [Comp Ex. 1, reference compound] | 15 | – | – | – | – | 6.5
6 | O=C(CC1Cc2ccccc2C1)N[C@H](CN1CCCC1)[C@H](O)c1cccc(Cl)c1F [Example 22, N-((1R,2R)-1-(3-chloro-2-fluorophenyl)-1-hydroxy-3-(pyrrolidin-1-yl)propan-2-yl)-2-(2,3-dihydro-1H-inden-2-yl)acetamide] | – | 141 | – | 4.6 | – | –
7 | CC1(C)COc2cc([C@@H](O)[C@@H](CN3CCCC3)NC(=O)CC3Cc4ccccc4C3)ccc2O1 [Comp. Ex. 7, reference compound] | 29 | – | – | – | – | 1
8 | CC(C)(C)Oc1ccc([C@@H](O)[C@@H](CN2CCCC2)NC(=O)CC2Cc3ccccc3C2)cc1 [Comp. Ex. 2, reference compound] | 120 | – | – | – | – | 2.5
9 | O=C(CC1Cc2ccccc2C1)N[C@H](CN1CCCC1)[C@H](O)c1ccc(OC(F)F)c(Cl)c1 [Example 13, N-((1R,2R)-1-(3-chloro-4-(difluoromethoxy)phenyl)-1-hydroxy-3-(pyrrolidin-1-yl)propan-2-yl)-2-(2,3-dihydro-1H-inden-2-yl)acetamide] | – | 0.71 | 535 | 187 | 216 ng·h/mL | –
10 | O=C(CC1Cc2ccccc2C1)N[C@H](CN1CCCC1)[C@H](O)c1ccc(C2CC2)c(Cl)c1 [Example 8, N-((1R,2R)-1-(3-chloro-4-cyclopropylphenyl)-1-hydroxy-3-(pyrrolidin-1-yl)propan-2-yl)-2-(2,3-dihydro-1H-inden-2-yl)acetamide] | – | 0.54 | – | 91 | – | –
11 | O=C(CC1Cc2ccccc2C1)N[C@H](CN1CC[C@@H](F)C1)[C@H](O)c1cccc(Cl)c1 [Example 10, N-((1R,2R)-1-(3-chlorophenyl)-3-((R)-3-fluoropyrrolidin-1-yl)-1-hyroxypropan-2-yl)-2-(2,3-dihydro-1H-inden-2-yl)acetamide] | – | 8.7 | 289 | 12 | 940 ng·h/mL | –
12 | O=C(CC1Cc2ccccc2C1)N[C@H](CN1CCC1)[C@H](O)c1cccc(Cl)c1 [Example 16, N-((1R,2R)-3-(azetidin-1-yl)-1-(3-chlorophenyl)-1-hydroxypropan-2-yl)-2-(2,3-dihydro-1H-inden-2-yl)acetamide] | – | 6.8 | – | 54 | – | –
13 | COc1c(Cl)cccc1[C@@H](O)[C@@H](CN1CCCC1)NC(=O)CC1Cc2ccccc2C1 [Example 18, N-((1R,2R)-1-(3-chloro-2-methoxyphenyl)-1-hydroxy-3-(pyrrolidin-1-yl)propan-2-yl)-2-(2,3-dihydro-1H-inden-2-yl)acetamide] | – | 81.5 | – | – | – | –
14 | [2H]C([2H])([2H])N(C(=O)CC1Cc2ccccc2C1)[C@H](CN1CCCC1)[C@H](O)c1cccc(Cl)c1 [Example 17, N-((1R,2R)-1-(3-chlorophenyl)-1-hydroxy-3-(pyrrolidin-1-yl)propan-2-yl)-2-(2,3-dihydro-1H-inden-2-yl)-N-(methyl-d3)acetamide] | – | 11 | 366 | 15 | 742 ng·h/mL | –
15 | O=C(CC1Cc2ccccc2C1)N[C@H](CN1CCCC1)[C@H](O)c1cc(Cl)cc(OC2CC2)c1 [Example 20, N-((1R,2R)-1-(3-chloro-5-cyclopropoxyphenyl)-1-hydroxy-3-(pyrrolidin-1-yl)propan-2-yl)-2-(2,3-dihydro-1H-inden-2-yl)acetamide] | – | 2.1 | – | 6.5 | – | –
16 | O=C(CC1Cc2ccccc2C1)N[C@H](CN1CCCC1)[C@H](O)c1ccc(C2CC2)cc1 [Comp. Ex. 8, reference compound] | 56 | – | – | – | – | 3.9
17 | O=C(N[C@H](CN1CC[C@@H](F)C1)[C@H](O)c1cccc(Cl)c1)OC1Cc2ccccc2C1.O=C(O)C(=O)O [Example 15, 2,3-dihydro-1H-inden-2-yl ((1R,2R)-1-(3-chlorophenyl)-3-((R)-3-fluoropyrrolidin-1-yl)-1-hydroxypropan-2-yl)carbamate oxalate] | – | 19.5 | 913 | 0.8 | 2656 ng·h/mL | –
18 | O=C(CC1Cc2ccccc2C1)N[C@H](CN1CCCC1)[C@H](O)c1cc(Cl)ccc1F [Example 23, N-((1R,2R)-1-(5-chloro-2-fluorophenyl)-1-hydroxy-3-(pyrrolidin-1-yl)propan-2-yl)-2-(2,3-dihydro-1H-inden-2-yl)acetamide] | – | 0.17 | 644 | 24 | BLQ | –
19 | O=C(CC1Cc2ccccc2C1)N[C@H](CN1CCCC1)[C@H](O)c1ccc(OC2CC2)cc1 [Comp. Ex. 4, reference compound] | 3.8 | – | – | – | – | 1.7
20 | COc1ccc(Cl)cc1[C@@H](O)[C@@H](CN1CCCC1)NC(=O)CC1Cc2ccccc2C1 [Example 19, N-((1R,2R)-1-(5-chloro-2-methoxyphenyl)-1-hydroxy-3-(pyrrolidin-1-yl)propan-2-yl)-2-(2,3-dihydro-1H-inden-2-yl)acetamide] | – | 0.43 | – | 7.1 | – | –
21 | COc1ccccc1[C@@H](O)[C@@H](CN1CCCC1)NC(=O)CC1Cc2ccccc2C1 [Comp. Ex. 19, reference compound] | – | – | – | – | – | 4.8
22 | CC(C)(C)c1ccc([C@@H](O)[C@@H](CN2CCCC2)NC(=O)CC2Cc3ccccc3C2)cc1Cl [Example 21, N-((1R,2R)-1-(4-(tert-butyl)-3-chlorophenyl)-1-hydroxy-3-(pyrrolidin-1-yl)propan-2-yl)-2-(2,3-dihydro-1H-inden-2-yl)acetamide] | – | 24.1 | – | > 1000 | – | –
23 | CC1(Oc2ccc([C@@H](O)[C@@H](CN3CCCC3)NC(=O)CC3Cc4ccccc4C3)cc2)COC1 [Comp. Ex. 5, reference compound] | 24 | – | – | – | – | 7.9
24 | O=C(CC1Cc2ccccc2C1)N[C@H](CN1CCCC1)[C@H](O)c1ccc(OC(F)F)cc1 [Comp. Ex. 9, reference compound] | 38 | – | – | – | – | –
